# Data as given in patent US7098372B1, “Pharmaceutical compositions and methods of using secreted frizzled related protein” (Wyeth, priority 1999, dated 2006).
# Columns and labels:
# hOB SFRP gene fragment = assay: RADE (differential-display PCR) of hOB cell lines treated with osteogenic agents; type: cell-based, human; settings: 24 hr
# From the text: It can also be seen that the hOB-01-C1 cells express high basal levels of this gene.
# The hOB SFRP gene fragment was identified using RADE (rapid analysis of differential expression) technology as described by Shiue 1997 Drug Develop. Res. 41: 142–159, the whole of which is incorporated herein. Three hOB cell lines (hOB-03-C5, hOB-03-CE6 and hOB-01-C1), representing three distinct stages of differentiation (proliferative, mature and preosteocytic, respectively) were used to isolate and identify SFRP. The hOB cell lines were established and cultured as previously described (Bodine et al. 1996 J. Bone Miner. Res. 11: 806–819; Bodine et al. 1996 Endocrinology 137: 4592–4604; Bodine et al. 1997 J. Cell. Biochem. 65: 368–387). […] However, in contrast to osteosarcoma cells (Stein and Lian 1993 Endocrine Rev. 14: 424–442), the hOB cell lines were faithful to the proliferation/differentiation relationship at the nonpermissive temperature (>37° C.) when the T-antigen mutant is inactivated. The cell lines were seeded into 150 mm dishes at ˜40,000 cells/cm^2 with growth medium [D-MEM/F-12 containing 10% (v/v) heat-inactivated fetal bovine serum (FBS), 1% (v/v) Penicillin-Streptomycin and 2 mM GlutaMAX-1] and incubated overnight at 34° C. […]
# [1] = test system: hOB-03-C5, hOB-03-CE6 and hOB-01-C1 cells; assay: hOB cell viability in serum-free medium, Coulter cell counter; type: cell-based, human; settings: 39° C.
# Experimental: For these experiments, the cells were treated with either control or PGE2 (panels A & B) or control and TGF-β1 (panel C) in serum-free medium at 39° C. for 3 or 6 days. The results are presented as the % relative to the day 0 control (i.e., […] cells per well of a 6 well plate). The results of this experiment indicate that hOB cell viability declines over time in serum-free medium. In addition, for the hOB-03-C5 and hOB-03-CE6 cells, this rate of decline is accelerated by treatment with PGE2. This enhanced rate of cell death correlates with the upregulation of hOB SFRP mRNA levels in these cells following PGE2 treatment. […]
# The next day, one set of plates were rinsed with PBS, trypsinized, and baseline cell number (and mean cell volume) was determined with a Coulter Multisizer as previously described in Bodine et al. 1996 J. Bone Miner. […] The other set of plates was placed at the non-permissive temperature of 39° C., and cell number was determined 6 days later (the medium was changed on day 3). […]
# The hypothesis that up-regulation of SFRP-1/FRP-1/SARP-2 gene expression accelerates hOB cell death, while down-regulation of SFRP-1/FRP-1/SARP-2 gene expression suppresses cell death, was next examined. […] Finally, treatment of the hOB-03-C5 cells with PGE2 increased annexin V (a specific marker for apoptosis) binding to the cell as measured by flow cytometry (FIG. 11).
Compound,"regulation of hOB SFRP gene fragment (hOB SFRP gene fragment; pre-osteocytic hOB-01-C1 cell line, 0.1 nM)","increase in cell viability ([1]; hOB-01-C1 cells, 0.01–1.0 nM, dose-dependent)","regulation of hOB SFRP gene fragment (hOB SFRP gene fragment; hOB-03-C5 and hOB-03-CE6 cell lines, 100 nM)","fewer cells remaining alive versus control ([1]; hOB-03-C5 and hOB-03-CE6 cells, 100 nM, 6 days)"
human transforming growth factor-β1 [TGF-β1],down-regulated,about 2 fold,–,–
"CCCCC[C@H](O)/C=C/[C@H]1[C@H](O)CC(=O)[C@@H]1C/C=C\CCCC(=O)O [PGE2, prostaglandin E2]",–,–,strongly up-regulated,over 40%
